Results reported in patent US11332472B2, “Substituted piperidines as inhibitors of ubiquitin specific protease 7” (LES LABORATOIRES SERVIER, priority 2017, dated 2022).

Each compound was assayed against T1, USP7 (Homo sapiens, UniProt Q93009, C315A) (assay: Inhibition of USP7 by Fluorescence Intensity (FLINT) readings, Ubiquitin-Rhodamine-110 substrate). Details: 0.25 nM His-His-USP7 (aa208-560, [C315A]); compound 60 minutes at 30° C.; 500 nM Ubiquitin-Rhodamine substrate; 11-point curves.
T1 construct: 0.25 nM His-His-USP7 (aa208-560, [C315A]) was incubated with compound; His-His (N)
T1 sequence (Q93009 208-560 C315A): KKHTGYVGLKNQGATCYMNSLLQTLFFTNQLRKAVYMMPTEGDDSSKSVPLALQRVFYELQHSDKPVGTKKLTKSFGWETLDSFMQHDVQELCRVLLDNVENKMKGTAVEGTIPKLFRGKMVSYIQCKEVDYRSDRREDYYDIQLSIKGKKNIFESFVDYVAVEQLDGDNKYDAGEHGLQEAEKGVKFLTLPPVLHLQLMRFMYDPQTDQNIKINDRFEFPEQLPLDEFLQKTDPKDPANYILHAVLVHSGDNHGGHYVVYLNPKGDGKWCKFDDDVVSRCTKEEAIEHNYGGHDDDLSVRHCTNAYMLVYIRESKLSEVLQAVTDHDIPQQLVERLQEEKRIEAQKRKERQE
Format: biochemical
Experimental: USP7 activity was measured using Rhodamine-110 c-terminal labelled Ubiquitin as a substrate (Viva Biosciences). Incubation with USP7 results in the release of Rhodamine-110 leading to an increase in fluorescence which can be used in the continuous measurement of USP7 activity.
The USP7 reactions were performed in a 50 μL volume, in 384 well black solid low binding plates (Corning #3575). The reaction buffer consisted of 100 mM Bicine pH 8.0, 0.01% TritonX 100, 1 mM TCEP, and 10% DMSO.
0.25 nM His-His-USP7 (aa208-560, [C315A]) was incubated with compound (final concentration 10% DMSO) for 60 minutes at 30° C. The reaction was then initiated by the addition of 500 nM Ubiquitin-Rhodamine-10 substrate and the plate read every 3 minutes for 21 minutes to measure the release of Rhodamine-110. Fluorescence Intensity (FLINT) readings were measured using a Biomek Neo plate reader (Ex. 485 nm. Em. 535 nm).
The inhibition of increasing doses of compound was expressed as a percentage reduction in kinetic rate compared to the kinetic rates established between ‘DMSO only’ and ‘total inhibition’ controls (no USP7). The inhibitory concentrations that gave a 50% reduction in kinetic rate (IC50) were determined, from 11-point dose response curves, in XL-Fit using a 4-Parameter Logistic Model (Sigmoidal Dose-Response Model).

Point of comparison: `O=C(Nc1ccc2ncn(CC3(O)CCN(C(=O)[C@@H]4CCCC[C@H]4c4ccccc4)CC3)c(=O)c2n1)C1CCOC1` (relative stereo) [Example 101, N-[3-[[4-hydroxy-1-(trans-2-phenylcyclohexanecarbonyl)-4-piperidyl]methyl]-4-oxo-pyrido[3,2-d]pyrimidin-6-yl]tetrahydrofuran-3-carboxamide], IC50 99.6 nM. Against it:
- COc1ccc(-n2ccc3c(=O)n(CC4(O)CCN(C(=O)[C@@H]5CCC(F)(F)C[C@H]5c5ccoc5)CC4)cnc32)cc1 (relative stereo) [Example 74, 3-[[1-[trans-4,4-difluoro-2-(3-fury)cyclohexanecarbonyl]-4-hydroxy-4-piperidyl]methyl]-7-(4-methoxyphenyl)pyrrolo[2,3-d]pyrimidin-4-one] — 29-fold higher, 2900 nM
- CN1C(=O)CC[C@@H](C(=O)N2CCC(O)(Cn3cnc4c(ccn4C)c3=O)CC2)[C@@H]1c1ccccc1 (single isomer, unassigned) [Example 38, 3-[[4-hydroxy-1-[trans-1-methyl-6-oxo-2-phenyl-piperidine-3-carbonyl]-4-piperidyl]methyl]-7-methyl-pyrrolo[2,3-d]pyrimidin-4-one] — 4-fold higher, 399 nM
- O=C([C@@H]1CCCC(F)(F)[C@H]1c1ccccc1)N1CCC(O)(Cn2cnc3c(ccn3-c3ccccc3)c2=O)CC1 (relative stereo) [Example 51, 3-[[1-[trans-3,3-difluo-2-phenyl-cyclohexanecarbonyl]-4-hydroxy-4-piperidyl]methyl]-7-phenyl-pyrrolo[2,3-d]pyrimidin-4-one] — 100-fold higher, 10100 nM
- O=C([C@@H]1CCC(F)(F)C[C@H]1c1cscn1)N1CCC(O)(Cn2cnc3c(-c4ccccc4)scc3c2=O)CC1 (single isomer, unassigned) [Example 82, 3-[[1-[trans-4,4-difluoro-2-thiazol-4-yl-cyclohexanecarbonyl]-4-hydroxy-4-piperidyl]methyl]-7-phenyl-thieno[3,4-d]pyrimidin-4-one] — 100-fold higher, 10100 nM
- O=C(Nc1ccc2ncn(CC3(O)CCN(C(=O)[C@@H]4CCCC[C@H]4c4ccccc4)CC3)c(=O)c2n1)C1CCCC1O (relative stereo) [Example 103, 2-hydroxy-N-[3-[[4-hydroxy-1-(trans-2-phenylcyclohexanecarbonyl)-4-piperidyl]methyl]4-oxo-pyrido[3,2-d]pyrimidin-6-yl]cyclopentanecarboxamide] — within 1.5-fold, 125 nM
- Cn1ccnc1[C@@H]1CCCC[C@H]1C(=O)N1CCC(O)(Cn2cnc3c(ccn3-c3ccccc3)c2=O)CC1 (single isomer, unassigned) [Example 58, 3-[[4-hydroxy-1-[trans-2-(1-methylimidazol-2-yl)cyclohexanecarbonyl]-4-piperidyl]methyl]-7-phenyl-pyrrolo[2,3-d]pyrimidin-4-one] — 200-fold higher, 20300 nM
- O=C([C@@H]1CCCC[C@H]1c1ccccc1)N1CCC(O)(Cn2cnc3sccc3c2=O)CC1 (relative stereo) [Example 91, 3-[[4-hydroxy-1-(trans-2-phenylcyclohexanecarbonyl)-4-piperidyl]methyl]thieno[2,3-d]pyrimidin-4-one] — within 1.5-fold, 137 nM
- O=C([C@@H]1CCCC[C@H]1n1ccnc1)N1CCC(O)(Cn2cnc3c(ccn3-c3ccccc3)c2=O)CC1 (single isomer, unassigned) [Example 50, 3-[[4-hydroxy-1-[trans-2-imidazol-1-ylcyclohexanecarbonyl]-4-piperidyl]methyl]-7-phenyl-pyrrolo[2,3-d]pyrimidin-4-one] — 5.7-fold higher, 570 nM
- O=C([C@@H]1CCCC[C@H]1c1ccccc1)N1CCC(O)(Cn2cnc3c(ccn3Cc3ccsc3)c2=O)CC1 (relative stereo) [Example 110, 3-[[4-hydroxy-1-(trans-2-phenylcyclohexanecarbonyl)-4-piperidyl]methyl]-7-(3-thienylmethyl)pyrrolo[2,3-d]pyrimidin-4-one] — 4.5-fold higher, 450 nM
- NC(=O)CSCCC(=O)Nc1ccc2ncn(CC3(O)CCN(C(=O)[C@@H]4CCCC[C@H]4c4ccccc4)CC3)c(=O)c2n1 (relative stereo) [Example 108, 3-(2-amino-2-oxo-ethyl)sulfanyl-N-[3-[[4-hydroxy-1-(trans-2-phenylcyclohexanecarbonyl)-4-piperidyl]methyl]-4-oxo-pyrido[3,2-d]pyrimidin-6-yl]propanamide] — within 1.5-fold, 76.5 nM
- O=C([C@@H]1CCCC[C@H]1n1cccc1)N1CCC(O)(Cn2cnc3c(ccn3-c3ccccc3)c2=O)CC1 (single isomer, unassigned) [Example 13, 3-[[4-hydroxy-1-[trans-2-pyrrol-1-ylcyclohexanecarbonyl]-4-piperidyl]methyl]-7-phenyl-pyrrolo[2,3-d]pyrimidin-4-one] — 110-fold higher, 11100 nM
- CCn1cc([C@@H]2CC(F)(F)CC[C@H]2C(=O)N2CCC(O)(Cn3cnc4c(-c5ccccc5)scc4c3=O)CC2)cn1 (single isomer, unassigned) [Example 81, 3-[[1-[trans-2-(1-ethylpyrazol-4-yl)-4,4-difluoro-cyclohexanecarbonyl]-4-hydroxy-4-piperidyl]methyl]-7-phenyl-thieno[3,4-d]pyrimidin-4-one] — 770-fold higher, 76300 nM
- COc1ccc(-n2ccc3c(=O)n(CC4(O)CCN(C(=O)C5CCCCC5c5nccn5C)CC4)cnc32)cc1 (single isomer, unassigned) [Example 69, 3-[[4-hydroxy-1-trans-2-(1-methylimidazol-2-yl)cyclohexanecarbonyl]-4-piperidyl]methyl-7-(4-methoxyphenyl)pyrrolo[2,3-d]pyrimidin-4-one] — 110-fold higher, 10500 nM
- O=C([C@@H]1CCC(F)(F)C[C@H]1c1cocn1)N1CCC(O)(Cn2cnc3c(-c4ccc(CO)cc4)scc3c2=O)CC1 (relative stereo) [Example 77, 3-[[1-[trans-4,4-difluoro-2-oxazol-4-yl-cyclohexanecarbonyl]-4-hydroxy-4-piperidyl]methyl]-7-[4-(hydroxymethyl)phenyl]thieno[3,4-d]pyrimidin-4-one] — 5.9-fold higher, 591 nM
- COc1ccc(-n2ccc3c(=O)n(CC4(O)CCN(C(=O)[C@@H]5CC(F)(F)CC[C@H]5c5ccccc5)CC4)cnc32)cc1 (single isomer, unassigned) [Example 29, 3-[[1-[trans-5,5-difluoro-2-phenyl-cyclohexanecarbonyl]-4-hydroxy-4-piperidyl]methyl]-7-(4-methoxyphenyl)pyrrolo[2,3-d]pyrimidin-4-one] — 6.1-fold higher, 612 nM
- O=C([C@@H]1CC(F)(F)CC[C@H]1c1ccccc1)N1CCC(O)(Cn2cnc3c(-c4ccccc4)scc3c2=O)CC1 (single isomer, unassigned) [Example 79, 3-[[1-[trans-5,5-difluoro-2-phenyl-cyclohexanecarbonyl]-4-hydroxy-4-piperidyl]methyl]-7-phenyl-thieno[3,4-d]pyrimidin-4-one] — 1.7-fold lower, 60.1 nM
- O=C([C@@H]1CCC(F)(F)C[C@H]1c1ccncc1)N1CCC(O)(Cn2cnc3c(-c4ccccc4)scc3c2=O)CC1 (relative stereo) [Example 84, 3-[[1-[trans-4,4-difluoro-2-(4-pyridyl)cyclohexanecarbonyl]-4-hydroxy-4-piperidyl]methyl]-7-phenyl-thieno[3,4-d]pyrimidin-4-one] — 6.1-fold higher, 611 nM
- CC(C)n1ccc2c(=O)n(CC3(O)CCN(C(=O)[C@@H]4CCC(F)(F)C[C@H]4c4ccccc4)CC3)cnc21 (single isomer, unassigned) [Example 113, 3-[[1-[trans-4,4-difluoro-2-phenyl-cyclohexanecarbonyl]-4-hydroxy-4-piperidyl]methyl]-7-isopropyl-pyrrolo[2,3-d]pyrimidin-4-one] — 4.6-fold higher, 456 nM
- O=C([C@@H]1CCCO[C@H]1c1ccccc1)N1CCC(O)(Cn2cnc3c(ccn3-c3ccccc3)c2=O)CC1 (single isomer, unassigned) [Example 26, 3-[[4-hydroxy-1-[trans-2-phenyltetrahydropyran-3-carbonyl]-4-piperidyl]methyl]-7-phenyl-pyrrolo[2,3-d]pyrimidin-4-one] — within 1.5-fold, 67 nM
- O=C([C@@H]1CCCC[C@H]1c1ccccc1)N1CCC(O)(Cn2cnc3cccnc3c2=O)CC1 (relative stereo) [Example 93, 3-[[4-hydroxy-1-(trans-2-phenylcyclohexanecarbonyl)-4-piperidyl]methyl]pyrido[3,2-d]pyrimidin-4-one] — 1.7-fold higher, 171 nM
- O=C([C@@H]1CCC(F)(F)C[C@H]1c1cscn1)N1CCC(O)(Cn2cnc3c(-c4ccccc4)scc3c2=O)CC1 (single isomer, unassigned) [Example 83, 3-[[1-[trans-4,4-difluoro-2-thiazol-4-yl-cyclohexanecarbonyl]-4-hydroxy-4-piperidyl]methyl]-7-phenyl-thieno[3,4-d]pyrimidin-4-one] — 6.3-fold higher, 632 nM
- O=C([C@@H]1CCC(F)(F)C[C@H]1c1ccccc1)N1CCC(O)(Cn2cnc3c(ccn3C3CC3)c2=O)CC1 (single isomer, unassigned) [Example 116, 7-cyclopropyl-3-[[1-[trans-4,4-difluoro-2-phenyl-cyclohexanecarbonyl]-4-hydroxy-4-piperidyl]methyl]pyrrolo[2,3-d]pyrimidin-4-one] — 2.1-fold higher, 205 nM
